Experimental data from patent publication US20180071261A1, “CYCLOCREATINE MICROSUSPENSION” (Lumos Pharma, Inc., priority 2015, published 2018).
Values after ≈ are worked out from the molar mass of the structure shown.

How the values were obtained:
Type in all cases: physicochemical
[1] = Drug stability: cyclocreatine degradation after milling
Description: (§1) The cyclocreatine samples were analyzed before and after milling (Example 1) to assess the effect of milling on the drug stability.
After milling for about 45 min, the particle size of the micronized API appeared to have been reduced uniformly for the entire batch of sample.

[2] = Stability test: cyclocreatine concentration in suspension formulation over 40 days; details: suspension in water (~200 mg/mL)
[3] = Particle size analysis before and after milling; details: for Particle size: 200 mg/mL, 1.0 mm zirconia beads, 3344 rpm
From the text: To a milling vessel size of 0.6 liter of a Glen Dyno Mill about 70% volume of zirconia grinding media was charged. An agitator shaft activated the media, creating shearing and impacting forces. The rotation of the agitator imparted energy to the surrounding media and fractures the cyclocreatine solids suspended in water, resulting in overall reduction in particle size.
Water was charged into a stainless steel vessel equipped with overhead agitator and blanketed with nitrogen followed by the addition of cyclocreatine. The mixture was pumped via a peristaltic pump into the grinding chamber. The milled sample exiting the chamber was collected in another stainless steel vessel (also equipped with an overhead agitator and blanked with nitrogen) until the first vessel was empty at which time a three way valve was switched as to continue pumping the mixture in one of the vessels into the grinding chamber. The drug concentration in the suspension ranged from 10-20% w/v. […] The rotation of the disk accelerated the milling media radially. The suspension mixture flowed axially through the milling chamber where the shear forces generated during impaction of the milling media with the solid particles provided the energy input to fracture the drug into nanometer-sized particles. Up to 40% nanoparticles were observed. In another embodiment, up to about 10% nanoparticles by volume were observed. The temperature inside the grinding chamber was controlled by circulating coolant through the outer jacket. The resultant microsuspension had good flow characteristics and appeared milky (FIG. 2).
For example a 200 mg/mL solid concentration of formulation processed in a 0.6 liter sized grinding chamber filled with 1.0 mm diameter zirconia beads and a 3344 rpm agitator speed for a total of two hours produced samples with similar final particle size in three repeated experiments. In all instances, the particle size decreased markedly within 30 min processing time from the initial 400 μm to about 80 μm, but with little change observed between 30 and 120 min. Further prolonging in the milling times was not beneficial, because decreased particle sizes were not achieved. In addition to particle size analysis (FIG. 3), the SEM micrographs (FIG. 4) further confirmed that the milling process as effective in converting the original cyclocreatine particles into the low micron range.
as §1

[4] = Solubility of cyclocreatine in water
Description: The collected micronized API was then formulated with water to form an aqueous microsuspension. 20.0 grams of cyclocreatine was weighed into a graduated vessel. Approximately 80 mL of water was added and the solution mixed to allow partial dissolution. After mixing for 5 minutes, water was added to dilute to a final volume of 100 mL.

[5] = by process condition (un-milled vs wet bead mill)

Cyclocreatine degradation after milling process (%) [1, 5]: 0%
Stability during the milling process ([1]; dry milling (pin mill), about 45 min): stable
Cyclocreatine concentration in the suspension sample ([2]; day 0): 177.1 ± 0.5 mg/g
Cyclocreatine concentration in the suspension sample ([2]; day 7): 174.6 ± 1.0 mg/g
Cyclocreatine concentration in the suspension sample ([2]; day 11): 175.7 ± 1.0 mg/g
Cyclocreatine concentration in the suspension sample ([2]; day 26): 176.9 ± 0.5 mg/g
Cyclocreatine concentration in the suspension sample ([2]; day 40): 180.1 ± 1.5 mg/g
Nanoparticles observed ([3]; after wet bead milling): Up to 40%
Nanoparticles by volume observed ([3]; after wet bead milling, another embodiment, by volume): up to 10%
Particle Size (μm, Volume weighted average) [3, 5]: 400 μm
Particle size ([3]; initial, before wet milling): 400 μm
Particle size ([3]; within 30 min processing time): about 80 μm
solubility [4]: 17 mg/mL (≈ 119 mM)
SMILES: NC1=NCCN1CC(=O)O [Cyclocreatine, cyclocreatine]
